{"source": "ChEMBL document CHEMBL1221387", "about": "“Prenylflavonoids from Glycyrrhiza uralensis and their protein tyrosine phosphatase-1B inhibitory activities” (Bioorg Med Chem Lett, 2010)"}
{"biological_target": "T1, Tyrosine-protein phosphatase non-receptor type 1 (Homo sapiens, UniProt P18031)", "T1 sequence (P18031 whole entry)": "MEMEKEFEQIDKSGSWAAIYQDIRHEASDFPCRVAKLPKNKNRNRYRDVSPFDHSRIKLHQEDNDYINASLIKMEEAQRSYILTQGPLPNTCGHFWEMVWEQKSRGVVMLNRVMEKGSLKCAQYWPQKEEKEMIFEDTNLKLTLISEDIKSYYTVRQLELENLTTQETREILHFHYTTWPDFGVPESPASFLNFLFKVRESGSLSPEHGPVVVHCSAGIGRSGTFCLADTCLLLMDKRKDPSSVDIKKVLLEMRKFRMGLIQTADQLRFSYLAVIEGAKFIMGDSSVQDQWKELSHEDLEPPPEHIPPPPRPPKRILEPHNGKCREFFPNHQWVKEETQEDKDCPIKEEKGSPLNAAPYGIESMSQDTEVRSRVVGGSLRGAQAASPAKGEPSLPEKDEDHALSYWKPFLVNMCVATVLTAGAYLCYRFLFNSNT", "assay": "Inhibition of human recombinant PTP1B assessed as p-nitorphenol production after 30 mins", "units": {"IC50": "µM"}}
{"smiles": "CCCCCCCCCCCCCCCC(=O)C1=C(O)[C@@H](CO)OC1=O", "IC50": 4.4}
{"smiles": "COc1cc(O)cc2occ(-c3cc(O)c(O)c(CC=C(C)C)c3)c(=O)c12", "note": "[GLISOFLAVONE]", "IC50": 27.9}
{"smiles": "COc1c(CC=C(C)C)c(O)cc(O)c1-c1oc2cc(O)ccc2c1C", "note": "[GLYCYBENZOFURAN]", "IC50": 25.5}
{"smiles": "COc1c(CC=C(C)C)c(O)cc2oc(=O)c(-c3ccc(O)cc3O)cc12", "note": "[GLYCYCOUMARIN]", "IC50": 184}
{"smiles": "CC(C)=CCc1cc(-c2coc3cc(O)cc(O)c3c2=O)cc(O)c1O", "note": "[GLYCYRRHISOFLAVONE]", "IC50": 58.7}
{"smiles": "COc1c(CC=C(C)C)c(O)cc2oc(-c3ccc(O)cc3O)cc12", "note": "[LICOCOUMARONE]", "IC50": 71.2}
{"smiles": "CC(C)=CCc1cc2c(=O)cc(-c3ccc(O)cc3)oc2cc1O", "note": "[LICOFLAVANONE A]", "IC50": 54.5}
